Test results reported in patent US10624895B2, “Methods of sensitizing a patient with glioma to a therapeutic agent by administering small hairpin RNA targeting PDZ-RHOGEF” (THE TRANSLATIONAL GENOMICS RESEARCH INSTITUTE, priority 2016, dated 2020).

Assays:
T98G and GBM43 cells = assay: Clonogenic survival assay, PPF with TMZ or radiation; type: cell-based, human
Description: (§1) FIGS. 26A, 26B, and 26C depict that PPF sensitizes GBM cells to TMZ and radiotherapy. FIG. 26A—A clonogenic assay was used to assess T98G and GBM43 cells survival after TMZ and radiation treatment. Cells were pre-treated with 5 μM PPF for 24 hours, and then either treated with 250 μM TMZ for 24 hours or exposed to 2 Gy radiation. Graph depicts the surviving fraction in the treated cells compared to vehicle (VC) treated or non-treated (NT) cells, **p<0.01. FIG. 26B—T98G glioma cells were treated with vehicle, PPF (5 μM) TMZ (250 μM) and PPF in combination with TMZ. TMZ-induced apoptosis was assayed by immunoblot analysis of cell lysates with an antibody to cleaved PARP. Immunoblotting for α-Tubulin was included as a loading control. FIG. 26C—T98G, GBM10, and GBM43 cells were treated with PPF ([…], and then immunoblotted to assess the activation of AKT and NF-κB. Immunoblotting for β-Actin is included as a loading control.
(§2) Referring now to FIGS. 26A, 26B, and 26C: Knockdown of TROY expression with shRNA decreases TMZ resistance in GBM cells in vitro (See Reference 42). […] Following combination therapy, cells were trypsinized, counted, and plated in a 6-well culture dish at densities of 100, 250, and 500 cells per well in triplicate. Cells were incubated for 12 days then fixed, stained with 0.5% crystal violet solution, and counted manually by blinded observers. […]

cleaved PARP = assay: Immunoblot for cleaved PARP (TMZ-induced apoptosis); type: cell-based, human; details: T98G cells, PPF (5 μM) in combination with TMZ (250 μM), compared to TMZ alone
Description: as §1, §2

[1] = tested on: T98G, GBM10, and GBM43 glioma cells; assay: Matrigel invasion assay; type: cell-based, human; details: 5 μM PPF, 24 hours, 10% FBS
Description: FIGS. 27A and 27B depict that PPF suppresses GBM cell invasion and Rac1 activation. FIG. 27A—T98G, GBM10, and GBM43 glioma cells were treated with 5 μM PPF and invasion was assayed over 24 hours utilizing a Matrigel® invasion assay, *p<0.05. FIG. 27B—T98G glioma cells were serum starved, pre-incubated with 5 μM PPF or vehicle for 1 hour, and then stimulated with 10% FBS for 2-10 mins. Cell lysates were harvested and equal concentrations of protein were assessed for Rac1 activation.
Referring now to FIGS. 27A and 27B: The inventors next examined whether PPF inhibited TROY dependent glioma cell invasion. […] Briefly, 5.0×10^5 cells glioma cells were seeded in 100-mm diameter culture dishes and incubated overnight at 37° C. Subsequently, cells were serum starved for 16 hours at 37° C. Cells were then harvested, re-suspended in growth factor reduced Matrigel® (Becton Dickinson) (1.0×10^5 cells/50 μL), added in triplicates to collagen-coated transwell chambers, and allowed to invade through Matrigel® in presence of 10% FBS and/or 5 μM PPF. After incubation for 24 hours at 37° C. non-invaded cells were scrapped off the upper side of the membrane and cells invaded to the other side of the membrane were fixed with 4% paraformaldehyde (PFA) (Affymetrix) and stained with DAPI (Invitrogen). Nuclei of invaded cells were counted in five high power fields (HPF) with a 20× objective.

NF-κB = assay: Immunoblot of NF-κB activation after PPF; type: cell-based, human; details: T98G and GBM43 cells treated with PPF
Description: as §1, §2

AKT = assay: Immunoblot of AKT activation after PPF; type: cell-based, human; details: T98G and GBM43 cells treated with PPF
Description: as §1, §2

CNS-1 rat model = details: systemic PPF treatment; cited from earlier work
TROY = assay: Western blot of TROY expression after PPF treatment; type: cell-based, human
Description: FIG. 24A—a Western blot analysis of TROY expression in T98G cells. Cells were treated with PPF at indicated concentrations for 6 hrs, lysed, and cell lysates immunoblotted with anti-TROY antibody. Immunoblotting of α-Tubulin in cell lysates is included as a loading control. FIG. 24B—Western blot analysis of TROY expression in T98G, GBM43, and GBM10 cells. Cells were treated with PPF at indicated concentrations for 24 hrs, lysed, and cell lysates immunoblotted with anti-TROY and α-Tubulin antibodies. FIG. 24C—Western Blot analysis of TROY expression in GBM10 and GBM43 primary glioma cells. Cells were treated with 5 μM PPF, lysed at the indicated time-points, and the lysates immunoblotted with an anti-TROY antibody. Immunoblotting of β-Actin in cell lysates is included as a loading control. FIG. […]—Western Blot analysis of T98G, GBM10 and GBM43 glioma cells treated with 5 μM PPF for 24 hours. Lysates were immunoblotted with anti-TROY, anti-TNFR1, anti-EGFR, and β-Actin antibodies.
Referring now to FIGS. 24A, 24B, 24C, and 24D: The inventors investigated if PPF could be utilized pharmacologically to decrease TROY expression in GBM cells. The long-term established cell line T98G was first utilized to test the efficacy of PPF. Cells were treated with increasing concentration of PPF, 1 to 20 μM lysed, and TROY expression assessed by immunobloting. Briefly, monolayers of cells were washed in phosphate-buffered saline (PBS) containing 1 mM phenylmethylsulfonylfluoride and 1 mM sodium orthovanadate and then lysed in 2×SDS sample buffer containing protease and phosphatase inhibitors. Protein concentrations were determined using the BCA Assay (Pierce). Thirty micrograms of total protein was loaded per lane and separated by SDS-PAGE. After transfer, the nitrocellulose membrane (Invitrogen) was blocked with either 5% nonfat-milk or 5% BSA in TB ST before addition of primary antibodies and followed with peroxidase-conjugated secondary antibody (Promega). Protein bands were detected using SuperSignal® Chemiluminescent Substrate (Pierce) with a UVP BioSpectrum 500 Imaging System.

In the case of `CCCn1cnc2c1c(=O)n(CCCCC(C)=O)c(=O)n2C` [PPF, 3-methyl-1-(5-oxohexyl)-7-propyl-3,7-dihydro-1H-purine-2,6-dione], the surviving fraction (T98G and GBM43 cells; 5 μM PPF 24 hours then 250 μM TMZ 24 hours, compared to TMZ alone, T98G and GBM43) is reported as “significantly decreased the surviving fraction”, the surviving fraction (T98G and GBM43 cells; 5 μM PPF 24 hours then 2Gy radiation, compared to 2Gy radiation alone) is reported as “significantly decreased the surviving fraction” and the “cleaved PARP” value (cleaved PARP) is reported as “increase in cleaved PARP”. For the same compound, the glioma cell invasion [1] was “significantly inhibited glioma cell invasion”, the NF-κB phosphorylation (NF-κB) was “effectively decreased” and the AKT phosphorylation (AKT) was “effectively decreased”. The tumor growth (CNS-1 rat model) was “decreased tumor growth”, the “TROY expression over time” value (TROY; GBM10 and GBM43 cells, 5 μM PPF, varying lengths of time) was “decreased in a time-dependent manner” and the TROY expression (TROY; T98G cells, 1 μM PPF) was “significant suppression”. For the same compound, the TROY expression (TROY; T98G cells, PPF 1 to 20 μM, 6 hrs) was “decreased in concentration dependent manner” and the TROY expression (TROY; T98G, GBM10, GBM43 cells, 5 μM PPF, 24 hrs) was “effective in lowering TROY expression”.
